The record followed here is patent US20050282840A1, “Methods of modulating neurotrophin-mediated activity” (PainCeptor Pharma Corporation, priority 2004, published 2005).

Test [1] has as its target T1, p75^NTR receptors (PC12 cells) (Rattus norvegicus, UniProt P07174).
T1 construct: endogenous in cells; host or cells: PC12 cells
T1 sequence (P07174 30-425): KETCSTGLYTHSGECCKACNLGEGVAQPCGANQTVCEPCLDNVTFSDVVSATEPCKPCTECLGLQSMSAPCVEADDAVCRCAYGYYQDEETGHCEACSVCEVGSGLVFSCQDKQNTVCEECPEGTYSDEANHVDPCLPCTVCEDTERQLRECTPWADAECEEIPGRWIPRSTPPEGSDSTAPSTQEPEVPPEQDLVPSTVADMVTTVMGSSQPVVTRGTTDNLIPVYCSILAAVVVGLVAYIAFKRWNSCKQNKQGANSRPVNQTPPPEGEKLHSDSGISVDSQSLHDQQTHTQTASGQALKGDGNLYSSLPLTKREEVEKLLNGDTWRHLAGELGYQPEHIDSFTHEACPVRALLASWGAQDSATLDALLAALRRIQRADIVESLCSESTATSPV
T1 sequence (P23560 129-247 partner): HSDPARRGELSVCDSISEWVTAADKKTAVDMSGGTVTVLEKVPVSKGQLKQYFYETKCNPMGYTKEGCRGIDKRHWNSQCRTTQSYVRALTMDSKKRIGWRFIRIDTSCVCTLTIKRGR
Nature of the test: Basic screening assay: binding of 125I-BDNF to PC12 cells. The settings on record: read-out: BDNF Activity % Maximal Binding. In a few lines: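 4×10^6 PC12 cells incubated 2 h at 4° C, rotating, with 0.5 nM ^125I-BDNF (final) and compound at 50 μM, in duplicate or more. Bound ligand separated through 10% glycerol by centrifugation and counted by gamma counter; specific binding is Bmax minus NSB; inhibitors followed up for EC50.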

Test [2] deals with p75^NTR receptors (PC12 cells). Nature of the test: Basic screening assay: binding of 125I-NGF to PC12 cells. The settings on record: test compound 50 μM, 0.5 nM 125I-NGF, PC12 cells, 2 h at 4° C., specific binding as percent of control. Put shortly: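 Inhibition of 0.5 nM 125I-NGF binding to p75NTR on PC12 cells was measured with compounds at 50 μM during 2 h rotation at 4° C. Cell-bound radioactivity from glycerol-cushion centrifugation was gamma-counted, giving NSB-corrected binding as % of control specific binding.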

Where [3] appears, read: Table 2, test compound 50 μM, 0.5 nM 125I-BDNF, PC12 cells, 2 h at 4° C., specific binding as percent of control.
[4] abbreviates: Table 4, test compound 50 μM, 0.5 nM 125I-BDNF, PC12 cells, 2 h at 4° C., specific binding as percent of control.

Where two headings read alike, the source gives them in different places.

As for `CCOC(=O)c1ccc(-c2ccc(/C=C3/SC(=S)N(CC(=O)O)C3=O)o2)cc1` [Compound 68, 4-[5-(3-Carboxymethyl-4-oxo-2-thioxo-thiazolidin-5-ylidenemethyl)furan-2-yl]benzoic acid ethyl ester], the activity at 50 µM in test [1] (setting [3]) is 0 to 10%. Moreover, in test [2] (Table 2), the “NGF Activity % Maximal Binding” value is “XX (30 < XX < 40)”.
Consider `COC(=O)c1cccc(-c2ccc(/C=C3/SC(=S)N(CC(=O)O)C3=O)o2)c1` [Compound 69, 3-[5-(3-Carboxymethyl-4-oxo-2-thioxo-thiazolidin-5-ylidenemethyl)furan-2-yl]benzoic acid methyl ester], for which the activity at 50 µM in test [1] (setting [3]) lay within 0 to 10%. For the same compound, the “NGF Activity % Maximal Binding” value in test [2] (Table 2) was “XX (30 < XX < 40)”.
In the case of `O=C1NC(=S)N(c2ccc(F)cc2)C(=O)/C1=C\c1ccc(-c2cccc([N+](=O)[O-])c2)o1` [Compound 70, 1-(4-Fluorophenyl)-5-[5-(3-nitrophenyl)furan-2-ylmethylene]-2-thioxo-dihydro-pyrimidine-4,6-dione], the activity at 50 µM in test [1] is 0 to 10%. Further, in test [2] (Table 2), the “NGF Activity % Maximal Binding” value is recorded as “X (40 < X < 50)”.
As for `Cc1c(-c2ccc(C=C3C(=O)NC(=S)NC3=O)o2)ccc([N+](=O)[O-])c1C` [Compound 71, 5-[5-(2,3-Dimethyl-4-nitrophenyl)furan-2-ylmethylene]-2-thioxo-dihydro-pyrimidine-4,6-dione], the activity at 50 µM in test [1] fell in the range of 0 to 10%. Further, in test [2] (Table 2), the “NGF Activity % Maximal Binding” value is “X (40 < X < 50)”.
Consider `O=C(O)c1ccc(Cl)c(-c2ccc(/C=C3/NC(=O)N(Cc4ccccc4F)C3=O)o2)c1` [Compound 72, 4-Chloro-3-{5-[1-(2-fluorobenzyl)-2,5-dioxo-imidazolidin-4-ylidenemethyl]furan-2-yl}benzoic acid], for which, in test [1] (setting [3]), the activity at 50 µM lay within 0 to 10%. The “NGF Activity % Maximal Binding” value in test [2] (Table 2) was “X (40 < X < 50)”.
Take `CCN1C(=O)S/C(=C/c2ccc(-c3ccc(C(=O)O)cc3)o2)C1=O` [Compound 73, 4-[5-(3-Ethyl-2,4-dioxo-thiazolidin-5-ylidenemethyl)furan-2-yl]benzoic acid]: the activity at 50 µM in test [1] (setting [3]) is 0 to 10%. Besides, the “NGF Activity % Maximal Binding” value in test [2] (Table 2) is recorded as “X (40 < X < 50)”.
Turning to `NS(=O)(=O)c1cccc(-c2ccc(/C=C3/SC(=S)N(CC(=O)O)C3=O)o2)c1` [Compound 74, {4-oxo-5-[5-(3-sulfamoylphenyl)furan-2-ylmethylene]-2-thioxo-thiazolidin-3-yl}-acetic acid], the activity at 50 µM in test [1] (setting [3]) is 0 to 10%. In addition, the “NGF Activity % Maximal Binding” value in test [2] (Table 2) is “X (40 < X < 50)”.
`O=C1NC(=O)C(=Cc2ccc(-c3ccc(Cl)c(C(=O)O)c3)o2)C(=O)N1` [Compound 75, 2-Chloro-5-[5-(2,4,6-trioxo-tetrahydro-pyrimidin-5-ylidenemethyl)furan-2-yl]benzoic acid]: in test [1], the activity at 50 µM is 0 to 10%. The “NGF Activity % Maximal Binding” value in test [2] (Table 2) is given as “X (40 < X < 50)”.
On to `Cc1cc(C(=O)O)ccc1-c1ccc(/C=C2\SC(=O)N(C)C2=O)o1` [Compound 76, 3-Methyl-4-[5-(3-methyl-2,4-dioxo-thiazolidin-5-ylidenemethyl)furan-2-yl]benzoic acid], for which the activity at 50 µM in test [1] (setting [3]) lay within 0 to 10%. Further, the “NGF Activity % Maximal Binding” value in test [2] (Table 2) was “X (40 < X < 50)”.
`CN1C(=O)NC(=O)/C(=C/c2ccc(-c3cccc(C(=O)O)c3)o2)C1=O` [Compound 77, 3-[5-(1-Methyl-2,4,6-trioxo-tetrahydro-pyrimidin-5-ylidenemethyl)furan-2-yl]benzoic acid]: in test [1], the activity at 50 µM was in the range of 10 to 20%. The “NGF Activity % Maximal Binding” value in test [2] (Table 2) is listed as “XXX (20 < XXX < 30)”.
On to `CN1C(=O)NC(=O)C(=Cc2ccc(-c3cccc([N+](=O)[O-])c3)o2)C1=O` [Compound 78, 1-Methyl-5-[5-(3-nitrophenyl)furan-2-ylmethylene]-pyrimidine-2,4,6-trione], for which the activity at 50 µM in test [1] lay within 10 to 20%. Further, the “NGF Activity % Maximal Binding” value in test [2] (Table 2) is on record as “X (40 < X < 50)”.
Regarding `COC(=O)CN1C(=O)S/C(=C/c2ccc(-c3ccc(C(=O)O)cc3)o2)C1=O` [Compound 79, 4-[5-(3-Methoxycarbonylmethyl-2,4-dioxo-thiazolidin-5-ylidenemethyl)furan-2-yl]benzoic acid], in test [1] (setting [3]), the activity at 50 µM is 10 to 20%. The “NGF Activity % Maximal Binding” value in test [2] (Table 2) is on record as “X (40 < X < 50)”.
On to `CN1C(=O)S/C(=C/c2ccc(-c3ccc(C(=O)O)c(Cl)c3)o2)C1=O` [Compound 80, 2-Chloro-4-[5-(3-methyl-2,4-dioxo-thiazolidin-5-ylidenemethyl)furan-2-yl]benzoic acid], for which the activity at 50 µM in test [1] (setting [3]) was 10 to 20%. The “NGF Activity % Maximal Binding” value in test [2] (Table 2) is reported as “X (40 < X < 50)”.
As for `Cc1c(-c2ccc(C=C3C(=O)NC(=O)NC3=O)o2)ccc([N+](=O)[O-])c1C` [Compound 81, 5-[5-(2,3-Dimethyl-4-nitrophenyl)furan-2-ylmethylene]-pyrimidine-2,4,6-trione], the activity at 50 µM in test [1] lay within 20 to 30%. Moreover, the “NGF Activity % Maximal Binding” value in test [2] (Table 2) is given as “XX (30 < XX < 40)”.
Turning to `Cc1cccc(N2NC(=O)C(=Cc3ccc(-c4ccc(C(=O)O)cc4)o3)C2=O)c1` [Compound 82, 4-[5-(3,5-Dioxo-1-m-tolyl-pyrazolidin-4-ylidenemethyl)furan-2-yl]benzoic acid], the activity at 50 µM in test [1] (setting [3]) was in the range of 20 to 30%. Moreover, the “NGF Activity % Maximal Binding” value in test [2] (Table 2) is listed as “X (40 < X < 50)”.
The matching figures for `O=C(O)CCCN1C(=O)C(=Cc2ccc(-c3cccc([N+](=O)[O-])c3)o2)SC1=S` [Compound 84, 4-{5-[5-(3-Nitrophenyl)furan-2-ylmethylene]-4-oxo-2-thioxo-thiazolidin-3-yl}-butyric acid]: 40 to 50% and “XXXXX (0 < XXXXX < 10)”.
With `O=C1NC(=S)N/C1=C/c1ccc(-c2ccc(Cl)c(C(=O)O)c2)o1` [Compound 85, 2-Chloro-5-[5-(5-oxo-2-thioxo-imidazolidin-4-ylidenemethyl)furan-2-yl]benzoic_acid], the activity at 50 µM in test [1] (Table 3, test compound 50 μM, 0.5 nM 125I-BDNF, PC12 cells, 2 h at 4° C., specific binding as percent of control) is more than 50%. For the same compound, in test [2] (Table 3), the “NGF Activity % Maximal Binding” value is recorded as “X (40 < X < 50)”.
As for `O=C1NC(=O)C(=Cc2ccc(-c3cccc([N+](=O)[O-])c3)o2)S1` [Compound 87, 5-[5-(3-Nitrophenyl)furan-2-ylmethylene]-thiazolidine-2,4-dione], in test [1] (setting [4]), the activity at 50 µM is more than 50%. In test [2] (Table 4), the “NGF Activity % Maximal Binding” value is “* (50 < *)”.
On to `Cc1ccc([N+](=O)[O-])cc1-c1ccc(/C=C2/SC(=O)NC2=O)o1` [Compound 88, 5-[5-(2-Methyl-5-nitrophenyl)furan-2-ylmethylene]-thiazolidine-2,4-dione], for which, in test [1] (setting [4]), the activity at 50 µM is more than 50%. The “NGF Activity % Maximal Binding” value in test [2] (Table 4) was “* (50 < *)”.
As to `O=C1NC(=S)N/C1=C\c1ccc(-c2cccc([N+](=O)[O-])c2)o1` [Compound 89, 5-[5-(3-Nitrophenyl)furan-2-ylmethylene]-2-thioxo-imidazolidin-4-one], in test [1] (setting [4]), the activity at 50 µM is more than 50%. In addition, the “NGF Activity % Maximal Binding” value in test [2] (Table 4) is “* (50 < *)”.
With `COc1cc([N+](=O)[O-])ccc1-c1ccc(/C=C2\NC(=S)NC2=O)o1` [Compound 90, 5-[5-(2-Methoxy-4-nitrophenyl)furan-2-ylmethylene]-2-thioxo-imidazolidin-4-one], in test [1] (setting [4]), the activity at 50 µM was more than 50%. Besides, the “NGF Activity % Maximal Binding” value in test [2] (Table 4) is “* (50 < *)”.
Turning to `COC(=O)c1cc(-c2ccc(/C=C3/NC(=S)NC3=O)o2)ccc1Cl` [Compound 91, 2-Chloro-5-[5-(5-oxo-2-thioxo-imidazolidin-4-ylidenemethyl)furan-2-yl]benzoic acid methyl ester], the activity at 50 µM in test [1] (setting [4]) was more than 50%. The “NGF Activity % Maximal Binding” value in test [2] (Table 4) is given as “* (50 < *)”.
Consider `Cc1cc([N+](=O)[O-])ccc1-c1ccc(C=C2SC(=O)NC2=O)o1` [Compound 92, 5-[5-(2-Methyl-4-nitrophenyl)furan-2-ylmethylene]-thiazolidine-2,4-dione], for which, in test [1] (setting [4]), the activity at 50 µM was more than 50%. The “NGF Activity % Maximal Binding” value in test [2] (Table 4) is listed as “* (50 < *)”.
The corresponding values for `O=C1NC(=S)N/C1=C/c1ccc(-c2ccc(Cl)c([N+](=O)[O-])c2)o1` [Compound 93, 5-[5-(4-Chloro-3-nitrophenyl)furan-2-ylmethylene]-2-thioxo-imidazolidin-4-one] are more than 50% and “* (50 < *)”.
